Experiments:
JAK2 = JAK2 (Homo sapiens (Human), UniProt O60674); test: Jak Biochemical HTRF Assay, JAK2; conditions: HTRF biochemical assay, GST-tagged catalytic domain; top concentration tested […]
Excerpt: (§1) Jak Biochemical HTRF Assay Protocol
(§2) Subsequent reagent additions employed an Agilent Bravo.

JAK1 = JAK1 (Homo sapiens (Human), UniProt P23458); test: Jak Biochemical HTRF Assay, JAK1; conditions: HTRF biochemical assay, GST-tagged catalytic domain; top concentration tested […]; read-out: JAK1 IC50
JAK1, sequence (P23458 875-1153): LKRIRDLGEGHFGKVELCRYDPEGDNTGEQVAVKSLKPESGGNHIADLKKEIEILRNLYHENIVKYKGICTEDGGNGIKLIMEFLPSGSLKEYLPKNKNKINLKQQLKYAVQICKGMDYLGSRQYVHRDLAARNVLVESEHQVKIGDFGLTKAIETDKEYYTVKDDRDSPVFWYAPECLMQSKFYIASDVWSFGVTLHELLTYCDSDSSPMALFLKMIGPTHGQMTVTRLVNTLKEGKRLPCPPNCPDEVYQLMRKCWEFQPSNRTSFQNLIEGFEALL
Excerpt: as §1, §2

JAK2, sequence (O60674 849-1124): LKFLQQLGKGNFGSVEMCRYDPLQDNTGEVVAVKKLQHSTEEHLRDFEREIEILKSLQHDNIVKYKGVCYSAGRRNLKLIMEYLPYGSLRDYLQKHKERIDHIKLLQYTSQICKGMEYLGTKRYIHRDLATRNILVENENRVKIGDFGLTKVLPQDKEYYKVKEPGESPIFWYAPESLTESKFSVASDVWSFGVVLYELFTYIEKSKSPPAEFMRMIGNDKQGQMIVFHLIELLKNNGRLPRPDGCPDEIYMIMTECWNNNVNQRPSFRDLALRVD

Which IC50 (JAK2) does the source give for `N#CC[C@]1(n2cc(C(N)=O)c(Nc3ccnc(F)c3)n2)CC[C@H](NCc2ccc(F)cc2F)CC1` [Example 41-1, Trans 1-(1-(cyanomethyl)-4-((2,4-difluorobenzyl)amino)cyclohexyl)-3-((2-fluoropyridin-4-yl)amino)-1H-pyrazole-4-carboxamide] here?
The IC50 was 218 nM.

What about the IC50 (JAK1) of the same compound?
The IC50 was 8 nM.

For `N#CC[C@]1(n2cc(C(N)=O)c(Nc3ccc(S(=O)(=O)C(F)F)cc3)n2)CC[C@H](N)CC1` [Example 41-2], which IC50 (JAK2) is on record?
The IC50 was > 1500 nM.

And the IC50 (JAK1)?
Its IC50 is 86 nM.

For `N#CC[C@]1(n2cc(C(N)=O)c(Nc3ccc(S(=O)(=O)C(F)F)cc3)n2)CC[C@H](N)CC1` [Example 41-3], which IC50 (JAK2) is on record?
Its IC50 is 33 nM.

And the IC50 (JAK1)?
The IC50 was 1 nM.

Which results are given for `N#CCC1(n2cc(C(N)=O)c(Nc3ccnc(F)c3)n2)CCC(NCc2ccc(F)cc2F)CC1` (stereo not drawn) [Example 41-4, Cis or trans 1-{1-(cyanomethyl)-4-[(2,4-difluorobenzyl)amino]cyclohexyl}-3-[(2-fluoropyridin-4-yl)amino]-1H-pyrazole-4-carboxamide]?
IC50 (JAK2): 2 nM; IC50 (JAK1): 0.09 nM

Which results are given for `N#CCC1(n2cc(C(N)=O)c(Nc3ccnc(F)c3)n2)CCC(NCc2ccc(C#N)cc2)CC1` (stereo not drawn) [Example 41-6, Cis or trans 1-{4-[(4-cyanobenzyl)amino]-1-(cyanomethyl)cyclohexyl}-3-[(2-fluoropyridin-4-yl)amino]-1H-pyrazole-4-carboxamide]?
IC50 (JAK2): 851 nM; IC50 (JAK1): 23 nM

Which results are given for `N#CCC1(n2cc(C(N)=O)c(Nc3ccnc(F)c3)n2)CCC(NCc2ccccc2O)CC1` (stereo not drawn) [Example 41-7, Cis or trans 1-{1-(cyanomethyl)-4-[(2-hydroxybenzyl)amino]cyclohexyl}-3-[(2-fluoropyridin-4-yl)amino]-1H-pyrazole-4-carboxamide]?
IC50 (JAK2): 468 nM; IC50 (JAK1): 12 nM

For `N#CCC1(n2cc(C(N)=O)c(Nc3ccnc(F)c3)n2)CCC(NCC2CCCCC2)CC1` (stereo not drawn) [Example 41-8, Trans 1-{1-(cyanomethyl)-4-[(cyclohexylmethyl)amino]cyclohexyl}-3-[(2-fluoropyridin-4-yl)amino]-1H-pyrazole-4-carboxamide], which IC50 (JAK2) is on record?
The IC50 was 153 nM.

And the IC50 (JAK1)?
Its IC50 is 0.8 nM.

How did the IC50 (JAK2) turn out when `N#CCC1(n2cc(C(N)=O)c(Nc3ccnc(F)c3)n2)CCC(NCc2ccc(Cl)cc2)CC1` (stereo not drawn) [Example 41-9, Cis or trans 1-{4-[(4-chlorobenzyl)amino]-1-(cyanomethyl)cyclohexyl}-3-[(2-fluoropyridin-4-yl)amino]-1H-pyrazole-4-carboxamide] was run?
Its IC50 is 440 nM.

And the IC50 (JAK1)?
Its IC50 is 15 nM.

`N#CCC1(n2cc(C(N)=O)c(Nc3ccnc(F)c3)n2)CCC(NCc2ccccc2Cl)CC1` (stereo not drawn) [Example 41-10, Cis or trans 1-{4-[(2-chlorobenzyl)amino]-1-(cyanomethyl)cyclohexyl}-3-[(2-fluoropyridin-4-yl)amino]-1H-pyrazole-4-carboxamide] was tested. Which IC50 (JAK2) did it give?
Its IC50 is 2 nM.

And the IC50 (JAK1)?
Its IC50 is 0.03 nM.

What does the source list for `N#CCC1(n2cc(C(N)=O)c(Nc3ccnc(F)c3)n2)CCC(NCc2ccccc2F)CC1` (stereo not drawn) [Example 41-11, Cis or trans 1-{1-(cyanomethyl)-4-[(2-fluorobenzyl)amino]cyclohexyl}-3-[(2-fluoropyridin-4-yl)amino]-1H-pyrazole-4-carboxamide]?
IC50 (JAK2): 2 nM; IC50 (JAK1): 0.08 nM

`N#CCC1(n2cc(C(N)=O)c(Nc3ccnc(F)c3)n2)CCC(NCc2ccc(F)cc2)CC1` (stereo not drawn) [Example 41-12, Cis or trans 1-{1-(cyanomethyl)-4-[(4-fluorobenzyl)amino]cyclohexyl}-3-[(2-fluoropyridin-4-yl)amino]-1H-pyrazole-4-carboxamide] was tested. Which IC50 (JAK2) did it give?
The IC50 was 9 nM.

What about the IC50 (JAK1) of the same compound?
Its IC50 is 0.2 nM.

Which results are given for `N#CCC1(n2cc(C(N)=O)c(Nc3ccnc(F)c3)n2)CCC(NCc2ccncc2)CC1` (stereo not drawn) [Example 41-13, Cis or trans 1-{1-(cyanomethyl)-4-[(pyridin-4-ylmethyl)amino]cyclohexyl}-3-[(2-fluoropyridin-4-yl)amino]-1H-pyrazole-4-carboxamide]?
IC50 (JAK2): 1000 nM; IC50 (JAK1): 86 nM

`N#CCC1(n2cc(C(N)=O)c(Nc3ccnc(F)c3)n2)CCC(NCc2cccc(C#N)c2)CC1` (stereo not drawn) [Example 41-14, Cis or trans 1-{4-[(3-cyanobenzyl)amino]-1-(cyanomethyl)cyclohexyl}-3-[(2-fluoropyridin-4-yl)amino]-1H-pyrazole-4-carboxamide] was tested. Which IC50 (JAK2) did it give?
Its IC50 is 1420 nM.

And the IC50 (JAK1)?
Its IC50 is 45 nM.

What does the source list for `N#CCC1(n2cc(C(N)=O)c(Nc3ccnc(F)c3)n2)CCC(NCc2ccc(Cl)cc2)CC1` (stereo not drawn) [Example 41-15, Cis or trans 1-{4-[(4-chlorobenzyl)amino]-1-(cyanomethyl)cyclohexyl}-3-[(2-fluoropyridin-4-yl)amino]-1H-pyrazole-4-carboxamide]?
IC50 (JAK2): 2 nM; IC50 (JAK1): 0.1 nM

With `N#CCC1(n2cc(C(N)=O)c(Nc3ccnc(F)c3)n2)CCC(NCc2ccccc2Cl)CC1` (stereo not drawn) [Example 41-16, Cis or trans 1-{4-[(2-chlorobenzyl)amino]-1-(cyanomethyl)cyclohexyl}-3-[(2-fluoropyridin-4-yl)amino]-1H-pyrazole-4-carboxamide] as the compound, how does the IC50 (JAK2) read?
The IC50 was 912 nM.

What about the IC50 (JAK1) of the same compound?
Its IC50 is 24 nM.

For `N#CCC1(n2cc(C(N)=O)c(Nc3ccnc(F)c3)n2)CCC(NCc2ccccn2)CC1` (stereo not drawn) [Example 41-17, Cis or trans 1-{1-(cyanomethyl)-4-[(pyridin-2-ylmethyl)amino]cyclohexyl}-3-[(2-fluoropyridin-4-yl)amino]-1H-pyrazole-4-carboxamide], which IC50 (JAK2) is on record?
The IC50 was 1390 nM.

What about the IC50 (JAK1) of the same compound?
The IC50 was 46 nM.

For `N#CCC1(n2cc(C(N)=O)c(Nc3ccnc(F)c3)n2)CCC(NCc2ccccc2)CC1` (stereo not drawn) [Example 41-18, Cis or trans 1-[4-(benzylamino)-1-(cyanomethyl)cyclohexyl]-3-[(2-fluoropyridin-4-yl)amino]-1H-pyrazole-4-carboxamide], which IC50 (JAK2) is on record?
The IC50 was 10 nM.

And the IC50 (JAK1)?
Its IC50 is 0.1 nM.

Which IC50 (JAK2) does the source give for `N#CCC1(n2cc(C(N)=O)c(Nc3ccnc(F)c3)n2)CCC(NCc2cccc(F)c2)CC1` (stereo not drawn) [Example 41-19, Cis or trans 1-{1-(cyanomethyl)-4-[(3-fluorobenzyl)amino]cyclohexyl}-3-[(2-fluoropyridin-4-yl)amino]-1H-pyrazole-4-carboxamide] here?
Its IC50 is 9 nM.

What about the IC50 (JAK1) of the same compound?
Its IC50 is 0.3 nM.

How did the IC50 (JAK2) turn out when `N#CCC1(n2cc(C(N)=O)c(Nc3ccnc(F)c3)n2)CCC(NCc2cccc(Cl)c2)CC1` (stereo not drawn) [Example 41-20, Cis or trans 1-{4-[(3-chlorobenzyl)amino]-1-(cyanomethyl)cyclohexyl}-3-[(2-fluoropyridin-4-yl)amino]-1H-pyrazole-4-carboxamide] was run?
The IC50 was 17 nM.

What about the IC50 (JAK1) of the same compound?
Its IC50 is 0.6 nM.

Which results are given for `N#CCC1(n2cc(C(N)=O)c(Nc3ccnc(F)c3)n2)CCC(NCc2ccccc2F)CC1` (stereo not drawn) [Example 41-21, Cis or trans 1-{1-(cyanomethyl)-4-[(2-fluorobenzyl)amino]cyclohexyl}-3-[(2-fluoropyridin-4-yl)amino]-1H-pyrazole-4-carboxamide]?
IC50 (JAK2): 308 nM; IC50 (JAK1): 11 nM

Which results are given for `N#CCC1(n2cc(C(N)=O)c(Nc3ccnc(F)c3)n2)CCC(NCc2cccnc2)CC1` (stereo not drawn) [Example 41-22, Cis or trans 1-{1-(cyanomethyl)-4-[(pyridin-3-ylmethyl)amino]cyclohexyl}-3-[(2-fluoropyridin-4-yl)amino]-1H-pyrazole-4-carboxamide]?
IC50 (JAK2): 1050 nM; IC50 (JAK1): 28 nM

What does the source list for `N#CCC1(n2cc(C(N)=O)c(Nc3ccnc(F)c3)n2)CCC(NCc2cccc(Cl)c2)CC1` (stereo not drawn) [Example 41-23, Cis or trans 1-{4-[(3-chlorobenzyl)amino]-1-(cyanomethyl)cyclohexyl}-3-[(2-fluoropyridin-4-yl)amino]-1H-pyrazole-4-carboxamide]?
IC50 (JAK2): 1430 nM; IC50 (JAK1): 46 nM

From patent US9328099B2, “Cyanomethylpyrazole carboxamides as janus kinase inhibitors” (Merck Sharp & Dohme Corp., priority 2011, dated 2016)
